Source: patent publication US20180256592A1, “ANTIBACTERIAL COMPOSITIONS” (priority 2015, published 2018)

Key:
Type in all cases: cell-based
[1] = tested on: KP S 440 (OXA 181, SHV, TEM, CTX-M 1); assay: MIC by agar dilution (MHA, CLSI)
Description: (§1) The antibacterial activity of combinations according to the invention was investigated against various bacterial strains. In a typical study, minimum inhibitory concentrations (MICs) were determined using Muller Hinton Agar (MHA) (BD, USA) according to Clinical and Laboratory Standards Institute (CLSI) recommendations, (Clinical and Laboratory Standards Institute (CLSI), Performance Standards for Antimicrobial Susceptibility Testing, 20th Informational Supplement, M 100-S20, Volume 30, No. 1, 2010). In short, the inocula were adjusted to deliver about […] colony forming units (CFU) per spot with a multipoint inoculator (Applied Quality Services, UK). The plates were pored with doubling concentration range of the test combinations according to invention containing MHA. The plates were inoculated and were incubated at 35° C. for 18 hours.

[2] = tested on: KP S 691 (OXA 181, SHV, TEM, CTX-M 1); assay: MIC by agar dilution (MHA, CLSI)
Description: as §1

[3] = tested on: Klebsiella H 515 (KPC, class A); assay: MIC by agar dilution (MHA, CLSI)
Description: as §1

[4] = tested on: Klebsiella H 520 (KPC, class A); assay: MIC by agar dilution (MHA, CLSI)
Description: as §1

[5] = tested on: Klebsiella H 521 (KPC, class A); assay: MIC by agar dilution (MHA, CLSI)
Description: as §1

[6] = tested on: Klebsiella H 523 (KPC, class A); assay: MIC by agar dilution (MHA, CLSI)
Description: as §1

[7] = tested on: Klebsiella J 101 (TEM, SHV, OMP); assay: MIC by agar dilution (MHA, CLSI)
Description: as §1

[8] = tested on: Klebsiella J 102 (TEM, SHV, OMP); assay: MIC by agar dilution (MHA, CLSI)
Description: as §1

[9] = tested on: Klebsiella J 117 (SHV, OMP); assay: MIC by agar dilution (MHA, CLSI)
Description: as §1

[10] = tested on: Klebsiella J 130 (SHV, OMP); assay: MIC by agar dilution (MHA, CLSI)
Description: as §1

NCTC KP 13442 (OXA-48) = assay: MIC by agar dilution (MHA, CLSI)
Description: as §1

[11] = tested on: highly resistant gram negative bacterial strains; assay: MIC by agar dilution (MHA, CLSI), whole strain panel of Table 1; settings: for MIC: read-out: MICs when used alone
Description: as §1

[12] = KP S 691 (OXA 181, SHV, TEM, CTX-M 1), + clavulanic acid 4 μg/ml

Nc1nc(/C(=C/CC(=O)O)C(=O)N[C@@H]2C(=O)N3C(C(=O)O)=CCS[C@H]23)cs1 [Ceftibuten, ceftibuten]
8 µg/mL: MIC [2] | MIC in presence of Sulbactam (4 μg/ml) ([3]; + sulbactam 4 μg/ml) | MIC in presence of Tazobactam (4 μg/ml) ([3]; + tazobactam 4 μg/ml) | MIC in presence of Sulbactam (4 μg/ml) ([4]; + sulbactam 4 μg/ml) | MIC in presence of Tazobactam (4 μg/ml) ([6]; + tazobactam 4 μg/ml) | MIC in presence of Clavulanic acid (4 μg/ml) ([7]; + clavulanic acid 4 μg/ml) | MIC in presence of Clavulanic acid (4 μg/ml) ([8]; + clavulanic acid 4 μg/ml)
>32 µg/mL: MIC in presence of Sulbactam (4 μg/ml) ([10]; + sulbactam 4 μg/ml) | MIC in presence of Tazobactam (4 μg/ml) ([10]; + tazobactam 4 μg/ml)
significantly reduced: change of MIC values of ceftibuten in the presence of clavulanic acid ([11]; strains of Table 1, clavulanic acid 4 μg/ml)
0.12 µg/mL: MIC in presence of Clavulanic acid (4 μg/ml) ([9]; + clavulanic acid 4 μg/ml) | MIC in presence of Clavulanic acid (4 μg/ml) (NCTC KP 13442 (OXA-48); + clavulanic acid 4 μg/ml)
0.25 µg/mL: MIC in presence of Sulbactam (4 μg/ml) (NCTC KP 13442 (OXA-48); + sulbactam 4 μg/ml) | MIC in presence of Tazobactam (4 μg/ml) (NCTC KP 13442 (OXA-48); + tazobactam 4 μg/ml) | MIC (NCTC KP 13442 (OXA-48); drug alone)
32 µg/mL: MIC ([4]; drug alone) | MIC ([5]; drug alone) | MIC in presence of Sulbactam (4 μg/ml) ([7]; + sulbactam 4 μg/ml) | MIC in presence of Tazobactam (4 μg/ml) ([7]; + tazobactam 4 μg/ml) | MIC in presence of Sulbactam (4 μg/ml) ([8]; + sulbactam 4 μg/ml) | MIC in presence of Tazobactam (4 μg/ml) ([8]; + tazobactam 4 μg/ml) | MIC ([8]; drug alone) | MIC in presence of Sulbactam (4 μg/ml) ([9]; + sulbactam 4 μg/ml) | MIC in presence of Tazobactam (4 μg/ml) ([9]; + tazobactam 4 μg/ml) | MIC ([9]; drug alone)
4 µg/mL: MIC in presence of Sulbactam (4 μg/ml) ([1]; + sulbactam 4 μg/ml) | MIC in presence of Tazobactam (4 μg/ml) ([1]; + tazobactam 4 μg/ml) | MIC in presence of Clavulanic acid (4 μg/ml) ([3]; + clavulanic acid 4 μg/ml) | MIC in presence of Clavulanic acid (4 μg/ml) ([4]; + clavulanic acid 4 μg/ml) | MIC in presence of Clavulanic acid (4 μg/ml) ([5]; + clavulanic acid 4 μg/ml) | MIC in presence of Clavulanic acid (4 μg/ml) ([6]; + clavulanic acid 4 μg/ml) | MIC in presence of Sulbactam (4 μg/ml) ([6]; + sulbactam 4 μg/ml) | MIC in presence of Clavulanic acid (4 μg/ml) ([10]; + clavulanic acid 4 μg/ml)
2 µg/mL: MIC in presence of Clavulanic acid (4 μg/ml) ([1]; + clavulanic acid 4 μg/ml) | MIC in presence of Sulbactam (4 μg/ml) ([2]; KP S 691 (OXA 181, SHV, TEM, CTX-M 1), + sulbactam 4 μg/ml) | MIC in presence of Tazobactam (4 μg/ml) ([2]; KP S 691 (OXA 181, SHV, TEM, CTX-M 1), + tazobactam 4 μg/ml)
16 µg/mL: MIC ([1]; drug alone) | MIC ([3]; drug alone) | MIC in presence of Tazobactam (4 μg/ml) ([4]; + tazobactam 4 μg/ml) | MIC in presence of Sulbactam (4 μg/ml) ([5]; + sulbactam 4 μg/ml) | MIC in presence of Tazobactam (4 μg/ml) ([5]; + tazobactam 4 μg/ml) | MIC ([6]; drug alone)
1 µg/mL: MIC in presence of Clavulanic acid (4 μg/ml) [2, 12]
> 32 µg/mL: MIC ([7]; drug alone) | MIC ([10]; drug alone)

C[C@@H](O)[C@H]1C(=O)N2C(C(=O)O)=C(SCCN=CN)C[C@H]12 [Imipenem]
2 µg/mL: MIC ([1]; drug alone) | MIC ([9]; drug alone) | MIC (NCTC KP 13442 (OXA-48); drug alone)
4 µg/mL: MIC ([7]; drug alone) | MIC ([10]; drug alone)
> 32 µg/mL: MIC ([4]; drug alone) | MIC ([5]; drug alone) | MIC ([6]; drug alone)
8 µg/mL: MIC ([8]; drug alone)
16 µg/mL: MIC ([3]; drug alone)

C[C@]1(Cn2ccnn2)[C@H](C(=O)O)N2C(=O)C[C@H]2S1(=O)=O [Tazobactam, tazobactam]
> 32 µg/mL: MIC [11]

COCC1=C(C(=O)O)N2C(=O)[C@@H](NC(=O)/C(=N\OC)c3csc(N)n3)[C@H]2SC1 [Cefpodoxime, cefpodoxime]
1 μ/ml: MIC of Cefpodoxime in presence of Clavulanic acid (4 μg/ml) (NCTC KP 13442 (OXA-48); + clavulanic acid 4 μg/ml)
>32 μ/ml: MIC of Cefpodoxime in presence of Clavulanic acid (4 μg/ml) ([1]; + clavulanic acid 4 μg/ml) | MIC of Cefpodoxime, Control (Cefpodoxime alone) ([1]; drug alone) | MIC of Cefpodoxime in presence of Clavulanic acid (4 μg/ml) [2, 12] | MIC of Cefpodoxime, Control (Cefpodoxime alone) ([2]; KP S 691 (OXA 181, SHV, TEM, CTX-M 1), drug alone) | MIC of Cefpodoxime in presence of Clavulanic acid (4 μg/ml) ([3]; + clavulanic acid 4 μg/ml) | MIC of Cefpodoxime, Control (Cefpodoxime alone) ([3]; drug alone) | MIC of Cefpodoxime in presence of Clavulanic acid (4 μg/ml) ([4]; + clavulanic acid 4 μg/ml) | MIC of Cefpodoxime, Control (Cefpodoxime alone) ([4]; drug alone) | MIC of Cefpodoxime in presence of Clavulanic acid (4 μg/ml) ([5]; + clavulanic acid 4 μg/ml) | MIC of Cefpodoxime, Control (Cefpodoxime alone) ([5]; drug alone) | MIC of Cefpodoxime in presence of Clavulanic acid (4 μg/ml) ([6]; + clavulanic acid 4 μg/ml) | MIC of Cefpodoxime, Control (Cefpodoxime alone) ([6]; drug alone) | MIC of Cefpodoxime in presence of Clavulanic acid (4 μg/ml) ([7]; + clavulanic acid 4 μg/ml) | MIC of Cefpodoxime, Control (Cefpodoxime alone) ([7]; drug alone) | MIC of Cefpodoxime in presence of Clavulanic acid (4 μg/ml) ([8]; + clavulanic acid 4 μg/ml) | MIC of Cefpodoxime, Control (Cefpodoxime alone) ([8]; drug alone) | MIC of Cefpodoxime, Control (Cefpodoxime alone) ([9]; drug alone) | MIC of Cefpodoxime, Control (Cefpodoxime alone) ([10]; drug alone)
32 μ/ml: MIC of Cefpodoxime in presence of Clavulanic acid (4 μg/ml) ([10]; + clavulanic acid 4 μg/ml)
4 μ/ml: MIC of Cefpodoxime in presence of Clavulanic acid (4 μg/ml) ([9]; + clavulanic acid 4 μg/ml) | MIC of Cefpodoxime, Control (Cefpodoxime alone) (NCTC KP 13442 (OXA-48); drug alone)

C=CC1=C(C(=O)O)N2C(=O)[C@@H](NC(=O)/C(=N\O)c3csc(N)n3)[C@H]2SC1 [Cefdinir, cefdinir]
16 µg/mL: MIC in presence of Clavulanic acid (4 μg/ml) ([10]; + clavulanic acid 4 μg/ml)
>32 µg/mL: MIC in presence of Clavulanic acid (4 μg/ml) ([1]; + clavulanic acid 4 μg/ml) | MIC in presence of Clavulanic acid (4 μg/ml) [2, 12] | MIC in presence of Clavulanic acid (4 μg/ml) ([3]; + clavulanic acid 4 μg/ml) | MIC in presence of Clavulanic acid (4 μg/ml) ([4]; + clavulanic acid 4 μg/ml) | MIC in presence of Clavulanic acid (4 μg/ml) ([5]; + clavulanic acid 4 μg/ml) | MIC in presence of Clavulanic acid (4 μg/ml) ([6]; + clavulanic acid 4 μg/ml) | MIC in presence of Clavulanic acid (4 μg/ml) ([7]; + clavulanic acid 4 μg/ml) | MIC in presence of Clavulanic acid (4 μg/ml) ([8]; + clavulanic acid 4 μg/ml)
32 µg/mL: MIC in presence of Clavulanic acid (4 μg/ml) (NCTC KP 13442 (OXA-48); + clavulanic acid 4 μg/ml) | MIC (NCTC KP 13442 (OXA-48); drug alone)
> 32 µg/mL: MIC ([1]; drug alone) | MIC [2] | MIC ([3]; drug alone) | MIC ([4]; drug alone) | MIC ([5]; drug alone) | MIC ([6]; drug alone) | MIC ([7]; drug alone) | MIC ([8]; drug alone) | MIC ([9]; drug alone) | MIC ([10]; drug alone)
0.5 µg/mL: MIC in presence of Clavulanic acid (4 μg/ml) ([9]; + clavulanic acid 4 μg/ml)

O=C(O)[C@H]1/C(=C/CO)O[C@@H]2CC(=O)N21 [Clavulanic acid, clavulanic acid]
> 32 µg/mL: MIC [11]

CC1(C)[C@H](C(=O)O)N2C(=O)C[C@H]2S1(=O)=O [Sulbactam, sulbactam]
> 32 µg/mL: MIC [11]

C=CC1=C(C(=O)O)N2C(=O)[C@@H](NC(=O)/C(=N\OCC(=O)O)c3csc(N)n3)[C@H]2SC1 [Cefixime, cefixime]
0.25 µg/mL: MIC in presence of Clavulanic acid (4 μg/ml) (NCTC KP 13442 (OXA-48); + clavulanic acid 4 μg/ml) | MIC (NCTC KP 13442 (OXA-48); drug alone)
>32 µg/mL: MIC in presence of Clavulanic acid (4 μg/ml) ([7]; + clavulanic acid 4 μg/ml) | MIC in presence of Clavulanic acid (4 μg/ml) ([8]; + clavulanic acid 4 μg/ml)
0.5 µg/mL: MIC in presence of Clavulanic acid (4 μg/ml) ([9]; + clavulanic acid 4 μg/ml)
> 32 µg/mL: MIC ([1]; drug alone) | MIC [2] | MIC ([3]; drug alone) | MIC ([4]; drug alone) | MIC ([5]; drug alone) | MIC ([6]; drug alone) | MIC ([7]; drug alone) | MIC ([8]; drug alone) | MIC ([9]; drug alone) | MIC ([10]; drug alone)
16 µg/mL: MIC in presence of Clavulanic acid (4 μg/ml) ([1]; + clavulanic acid 4 μg/ml) | MIC in presence of Clavulanic acid (4 μg/ml) [2, 12] | MIC in presence of Clavulanic acid (4 μg/ml) ([3]; + clavulanic acid 4 μg/ml) | MIC in presence of Clavulanic acid (4 μg/ml) ([4]; + clavulanic acid 4 μg/ml) | MIC in presence of Clavulanic acid (4 μg/ml) ([5]; + clavulanic acid 4 μg/ml) | MIC in presence of Clavulanic acid (4 μg/ml) ([6]; + clavulanic acid 4 μg/ml) | MIC in presence of Clavulanic acid (4 μg/ml) ([10]; + clavulanic acid 4 μg/ml)
